Laboratory results as given in PubChem BioAssay AID330 (DTP/NCI, 2004).
“And” between values parts separate entries of the source, which are not always exact repeats. Equal entries are not always repeated. Toxic doses and inconclusive results are not listed.

Test system: P388 leukemia ip, CD2F1 mice, survival T/C
Experiment: NCI In Vivo Anticancer Drug Screen. Data for tumor model P388 Leukemia (intraperitoneal) in CD2F1 (CDF1) mice
Settings: endpoint: median survival time, higher = longer survival
In short: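 Mice carrying the transplanted tumor received test compound or vehicle. Survival was recorded in each group, and the value is the treated-group measurement divided by that of the vehicle-treated control group.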

[1] = dose: 50.0 mg/kg/injection, schedule: Q01DX005 (ip), vehicle: Klucel (hydroxypropylcellulose) (HPC)
[2] = dose: 100.0 mg/kg/injection, schedule: Q01DX005 (ip), vehicle: Klucel (hydroxypropylcellulose) (HPC)
[3] = dose: 200.0 mg/kg/injection, schedule: Q01DX005 (ip), vehicle: Klucel (hydroxypropylcellulose) (HPC)
[4] = dose: 50.0 mg/kg/injection, schedule: Q01DX005 (ip), vehicle: saline with Tween-80
[5] = dose: 100.0 mg/kg/injection, schedule: Q01DX005 (ip), vehicle: saline with Tween-80
[6] = dose: 200.0 mg/kg/injection, schedule: Q01DX005 (ip), vehicle: saline with Tween-80
[7] = dose: 25.0 mg/kg/injection, schedule: Q01DX009 (ip), vehicle: other
[8] = dose: 50.0 mg/kg/injection, schedule: Q01DX005 (ip), vehicle: saline
[9] = dose: 100.0 mg/kg/injection, schedule: Q01DX005 (ip), vehicle: saline
[10] = dose: 200.0 mg/kg/injection, schedule: Q01DX005 (ip), vehicle: saline
[11] = dose: 50.0 mg/kg/injection, schedule: Q01DX009 (ip), vehicle: saline
[12] = dose: 50.0 mg/kg/injection, schedule: Q01DX009 (ip), vehicle: Klucel (hydroxypropylcellulose) (HPC)

`CC1NC(=O)N(C2CCCCCCC2)C1=O` (stereo not drawn) was tested, and the T/C [1] was 102 % of control, the T/C [2] was 114 % of control and the T/C [3] was 102 % of control.
In the case of `O=C(O)c1cccc(C(=O)O)c1Sc1ccccc1`, the T/C (dose: 100.0 mg/kg/injection, schedule: Q01DX001 (ip), vehicle: saline with Tween-80) is reported as 103 % of control, the T/C (dose: 200.0 mg/kg/injection, schedule: Q01DX001 (ip), vehicle: saline with Tween-80) is reported as 100 % of control and the T/C (dose: 400.0 mg/kg/injection, schedule: Q01DX001 (ip), vehicle: saline with Tween-80) is reported as 94 % of control.
In the case of `COc1cccc2c1C(=O)c1c(O)c3c(c(O)c1C2=O)CC(O)(C(=O)CO)CC3OC1CC2C(OC3COCC(C#N)N32)C(C)O1` (stereo not drawn), the T/C (dose: 0.5 mg/kg/injection, schedule: Q04DX003 (ip), vehicle: saline with Tween-80) is reported as 102 % of control and 120 % of control, the T/C (dose: 1.0 mg/kg/injection, schedule: Q04DX003 (ip), vehicle: saline with Tween-80) is reported as 116 % of control and the T/C (dose: 4.0 mg/kg/injection, schedule: Q04DX003 (ip), vehicle: saline with Tween-80) is reported as 113 % of control.
`CCn1c2ccc([N+](=O)[O-])cc2c2c([N+](=O)[O-])c(N)ccc21` was tested, and the T/C [4] was 92 % of control, the T/C [5] was 87 % of control and the T/C [6] was 90 % of control.
In the case of `COC1=CCC2C(=O)C=CC(=O)C2C1` (stereo not drawn), the T/C (dose: 12.5 mg/kg/injection, schedule: Q01DX005 (ip), vehicle: Klucel (hydroxypropylcellulose) (HPC)) is reported as 101 % of control, the T/C (dose: 25.0 mg/kg/injection, schedule: Q01DX005 (ip), vehicle: Klucel (hydroxypropylcellulose) (HPC)) is reported as 93 % of control and the T/C [1] is reported as 101 % of control. The T/C [2] was 96 % of control and the T/C [3] was 101 % of control.
`COc1cccc2c1C(=O)c1c(O)c3c(c(O)c1C2=O)CC(O)(C(=O)CO)CC3OC1CC(N)C(O)C(C)O1` (stereo not drawn) (tested in a mixture with another compound) was tested, and the T/C (dose: 6.25 mg/kg/injection, schedule: Q01DX009 (ip), vehicle: other) was 115 % of control and the T/C [7] was 89 % of control.
For `O=c1c(Br)cn(Cc2ccccc2)cc1Br`, the T/C [8] was 92 % of control, the T/C [9] was 95 % of control and the T/C [10] was 90 % of control.
For `CCOC(=O)CC1=CSC(=C(C#N)C#N)N1c1ccccc1`, the T/C [4] was 102 % of control, the T/C [5] was 98 % of control and the T/C [6] was 98 % of control.
In the case of `COc1cc(OC)c(C2c3cc4c(cc3OC(C)(O)C2C)OCO4)c(OC)c1` (stereo not drawn), the T/C (dose: 100.0 mg/kg/injection, schedule: Q04DX002 (ip), vehicle: saline with Tween-80) is reported as 94 % of control, the T/C (dose: 200.0 mg/kg/injection, schedule: Q04DX002 (ip), vehicle: saline with Tween-80) is reported as 89 % of control and the T/C (dose: 400.0 mg/kg/injection, schedule: Q04DX002 (ip), vehicle: saline with Tween-80) is reported as 102 % of control.
`COC12CC(=O)C(C(C)=O)=C(O)C1(C)c1c(OC(C)=O)c(C)c(O)c(C(C)=O)c1O2` (stereo not drawn) was tested, and the T/C (dose: 25.0 mg/kg/injection, schedule: Q01DX009 (ip), vehicle: gum acacia) was 106 % of control, the T/C (dose: 50.0 mg/kg/injection, schedule: Q01DX009 (ip), vehicle: gum acacia) was 99 % of control and 104 % of control and 114 % of control and the T/C (dose: 100.0 mg/kg/injection, schedule: Q01DX009 (ip), vehicle: gum acacia) was 124 % of control.
For `ONc1ccc2c(c1)C1C(C3C2C2(Cl)C(Cl)=C(Cl)C3(Cl)C2(Cl)Cl)C2(Cl)C(Cl)=C(Cl)C1(Cl)C2(Cl)Cl` (stereo not drawn), the T/C [11] was 96 % of control, the T/C (dose: 100.0 mg/kg/injection, schedule: Q01DX009 (ip), vehicle: saline) was 99 % of control and the T/C (dose: 200.0 mg/kg/injection, schedule: Q01DX009 (ip), vehicle: saline) was 92 % of control.
For `CN1C(C)(C)CC(O)CC1(C)C`, the T/C (dose: 60.0 mg/kg/injection, schedule: Q01DX005 (ip), vehicle: saline) was 102 % of control and the T/C (dose: 120.0 mg/kg/injection, schedule: Q01DX005 (ip), vehicle: saline) was 102 % of control.
For `CCOC(=O)NC1c2ccccc2Oc2c(C)cccc21` (stereo not drawn), the T/C [4] was 100 % of control, the T/C [5] was 100 % of control and the T/C [6] was 100 % of control.
With `COC(=O)C1C(C)(C)N=NC1(C)C` the T/C (dose: 12.5 mg/kg/injection, schedule: Q01DX009 (ip), vehicle: other) was 113 % of control, the T/C [7] was 115 % of control and the T/C (dose: 50.0 mg/kg/injection, schedule: Q01DX009 (ip), vehicle: other) was 105 % of control. The T/C (dose: 100.0 mg/kg/injection, schedule: Q01DX009 (ip), vehicle: other) was 103 % of control and the T/C (dose: 200.0 mg/kg/injection, schedule: Q01DX009 (ip), vehicle: other) was 108 % of control.
In the case of `COc1ccc(/C=C/C(=O)c2cc(O)cc(OC)c2)cc1`, the T/C (dose: 6.25 mg/kg/injection, schedule: Q01DX009 (ip), vehicle: Klucel (hydroxypropylcellulose) (HPC)) is reported as 101 % of control, the T/C (dose: 12.5 mg/kg/injection, schedule: Q01DX009 (ip), vehicle: Klucel (hydroxypropylcellulose) (HPC)) is reported as 96 % of control and the T/C (dose: 25.0 mg/kg/injection, schedule: Q01DX009 (ip), vehicle: Klucel (hydroxypropylcellulose) (HPC)) is reported as 101 % of control. For the same molecule, the T/C [12] was 110 % of control.
In the case of `COC(C(=O)C(O)C(C)O)C1CC2C=C3C=C(OC4CC(OC5CC(O)C(OC)C(C)O5)C(OC(C)=O)C(C)O4)C(C)C(=O)C3=C(O)C2=C(O)C1OC1CC(OC2CC(OC3CC(C)(O)C(OC(=O)C(C)C)C(C)O3)C(O)C(C)O2)C(O)C(C)O1` (stereo not drawn), the T/C (dose: 1.0 micrograms/kg/injection, schedule: Q01DX010 (ip), vehicle: saline) is reported as 150 % of control, the T/C (dose: 4.0 micrograms/kg/injection, schedule: Q01DX010 (ip), vehicle: saline) is reported as 165 % of control and the T/C (dose: 8.0 micrograms/kg/injection, schedule: Q01DX010 (ip), vehicle: saline) is reported as 175 % of control. The T/C (dose: 16.0 micrograms/kg/injection, schedule: Q01DX010 (ip), vehicle: saline) was 155 % of control.
In the case of `CCC1CN2CCc3cc(OC)c(OC)cc3C2CC1Cl` (stereo not drawn), the T/C (dose: 12.5 mg/kg/injection, schedule: Q01DX009 (ip), vehicle: saline) is reported as 90 % of control, the T/C (dose: 25.0 mg/kg/injection, schedule: Q01DX009 (ip), vehicle: saline) is reported as 90 % of control and the T/C (dose: 50.0 mg/kg/injection, schedule: Q01DX009 (ip), vehicle: saline with Tween-80) is reported as 101 % of control. The T/C [11] was 96 % of control.
In the case of `CCOC(=O)C1=Nc2ccccc2N=C(C2C(=O)C=C(C)OC2=O)C1` (stereo not drawn), the T/C (dose: 100.0 mg/kg/injection, schedule: Q01DX001 (ip), vehicle: saline) is reported as 108 % of control, the T/C (dose: 200.0 mg/kg/injection, schedule: Q01DX001 (ip), vehicle: saline) is reported as 104 % of control and the T/C (dose: 400.0 mg/kg/injection, schedule: Q01DX001 (ip), vehicle: saline) is reported as 103 % of control.
In the case of `Cn1cccc1/C=N/N1CC(=O)N(c2cccc(Cl)c2)CC1=O`, the T/C [4] is reported as 100 % of control and the T/C [5] is reported as 97 % of control.
For `ClCCN(CCCl)c1ccc(CNCCCNCc2ccc(N(CCCl)CCCl)cc2)cc1`, the T/C (dose: 2.5 mg/kg/injection, schedule: Q01DX009 (ip), vehicle: saline sonified) was 152 % of control and the T/C (dose: 5.0 mg/kg/injection, schedule: Q01DX009 (ip), vehicle: saline sonified) was 95 % of control.
In the case of `[Cu+2].[O-]/N=C/c1ccc(O)c(O)c1[O-].[O-]/N=C/c1ccc(O)c(O)c1[O-]`, the T/C (dose: 60.0 mg/kg/injection, schedule: Q01DX005 (ip), vehicle: saline with Tween-80) is reported as 91 % of control, the T/C (dose: 120.0 mg/kg/injection, schedule: Q01DX005 (ip), vehicle: saline with Tween-80) is reported as 87 % of control and the T/C (dose: 240.0 mg/kg/injection, schedule: Q01DX005 (ip), vehicle: saline with Tween-80) is reported as 89 % of control.
`O=C(NC(Cc1ccc(I)cc1)C(=O)O)c1cccc(Cl)c1` (stereo not drawn) was tested, and the T/C [1] was 99 % of control, the T/C [2] was 108 % of control and the T/C [3] was 108 % of control.
`Nc1nc(N)nc(NCCSS(=O)(=O)O)n1` was tested, and the T/C [12] was 94 % of control, the T/C (dose: 100.0 mg/kg/injection, schedule: Q01DX009 (ip), vehicle: Klucel (hydroxypropylcellulose) (HPC)) was 94 % of control and the T/C (dose: 200.0 mg/kg/injection, schedule: Q01DX009 (ip), vehicle: Klucel (hydroxypropylcellulose) (HPC)) was 91 % of control.
`COC(=O)C(Cc1ccccc1C(N)=O)(OC)OC` was tested, and the T/C [8] was 98 % of control, the T/C [9] was 99 % of control and the T/C [10] was 98 % of control.
For `CC1=C(C)C(=O)c2cc3c(-c4ccccc4)oc(-c4ccccc4)c3cc2C1=O`, the T/C (dose: 12.5 mg/kg/injection, schedule: Q01DX005 (ip), vehicle: saline with Tween-80) was 93 % of control, the T/C (dose: 25.0 mg/kg/injection, schedule: Q01DX005 (ip), vehicle: saline with Tween-80) was 95 % of control and the T/C [4] was 86 % of control and 96 % of control.
